One test relates to MLV Env-pseudotyped HIV. Briefly: Pseudotype reporter virus entry assay, MLV Env. The class given is cell-based, murine leukemia virus. As to the method: Pseudotype reporter virus entry assay: Recombinant luciferase-encoding HIV virions pseudotyped with Env from the M-tropic ADA (CCR5-dependent) and amphitropic murine leukemia virus (MLV) (CCR5-independent) were used to study HIV infection of MDM incubated with or without CP-96,345 or R-113281. The Env-deleted luciferase reporter plasmid PNL-Luc-E-R+ (kindly provided by N. Landau) was cotransfected into 293T cells along with plasmids encoding the ADA or MLV Env genes as previously described (31). Supernatants were collected 48 h later, assayed for p24^Gag antigen content, and frozen at −80° C. MDM (2.5×10^5 cells/well, in 48-well plates) were incubated overnight with or without CP-96,345 or R-113281 and then infected using 20 ng of p24^Gag antigen equivalent of each pseudotype HIV per well, in the presence of polybrene (7.5 μg/ml). At 72 h postinfection, the cells were lysed in 150 μl of 0.5% Triton-X-100 in PBS. Lysate (50 μl) was mixed with an equal volume of luciferase substrate (Promega, […].) and luciferase activity was determined in a microtiter plate luminometer (Dynex Technologies, Chantilly, Va.). The results were expressed as relative light units (RLU) in CP-96,345-treated or R-113281-treated and infected MDM as a percentage of that in untreated and infected MDM.

For another test, the system named is R5X4 strain (89.6). Briefly: HIV RT activity in MDM infected with R5X4 strain. The class given is cell-based. As to the method: (§1) Based upon their differential use of the major HIV co-receptors, HIV isolates have been referred to as R5, X4 or R5X4 strains, respectively (29). The M-tropic (macrophage-tropic) R5 prototype strains (Bal and ADA), dual tropic strain (89.6) and X4 primary isolate (UG024), were obtained from the NIH AIDS Reagent Program. Primary M-tropic isolates (BL-6 and CSF-6) were isolated from the blood and cerebrospinal fluid cells, respectively, of a subject with AIDS.
(§2) The cells were also incubated with SP and/or anti-SP antibody. In this case, SP was incubated with (1:1000 dilution in 10% FCS DMEM) or without anti-SP antibody at room temperature for 10 min and then the mixture was added to the cell cultures for 2 h. When the cells were treated with the combination of CP-96,345 and SP, or CP-96,345, SP and anti-SP antibody, CP-96,345 was incubated with the cell culture for 10 min and then SP was added to the MDM or CP-96,345, SP and anti-SP (1:1000 in 10% FCS DMEM) were incubated for 10 min at room temperature and the mixture was incubated with the MDM for 2 h before infection with HIV. Untreated MDM served as controls. The cells were treated prior to, during, and throughout the infection. […]

The next test relates to CCR5. Kind of test: Macrophage receptor expression by flow cytometry. The class given is cell-based, human. As to the method: The cells were removed from the culture plate and then resuspended in 100 μl of phosphate-buffered saline (PBS). After incubation with 20 μl of either anti-CCR5-FITC or anti-CXCR4-FITC or anti-CD4-FITC or anti-CD14-FITC for 45 min at 4° C., the cells were washed twice with PBS and fixed with 1% paraformaldehyde in PBS. Fluorescein-conjugated control antibodies were isotype-matched IgG. Fluorescence was analyzed on an EPICS-Elite flow cytometer (Beckman-Coulter Electronics, Hialeah, Fla.).
For orientation: Flow cytometry measures light scatter and fluorescence of single cells or particles in a stream.

In another test the test system is CCR5 mRNA. Briefly: CCR5 mRNA expression in MDM (RT-PCR). The class given is cell-based, human. The settings on record: for relative CCR5 mRNA level (real-time RT-PCR): CP-96,345 10^−7 to 10^−6 M or R-113281 10^−8 to 10^−6 M, 4 hours (FIG. 15A). As to the method: Total RNA was isolated from human peripheral blood MDM (10^6 cells) using Tri-Reagent (Molecular Research Center, Cincinnati, Ohio) as we previously reported (16).
Reverse transcription: Total RNA (1 μg) was reverse transcribed using Reverse Transcription System (Promega, Madison, Wis.) with the specific primers (antisense) for HIV gag (5′-[…]-[…]-3′; SEQ ID NO: 1) (27) or CCR5 (5′-[…]-3′; SEQ ID NO: 2) (32) for 1 h at 42° C. RT reactions was terminated by incubating the reaction mixture at 99° C. for 5 min and then kept at 4° C. The resulting cDNA was used as a template for PCR amplification or real time PCR quantification.
Polymerase chain reaction (PCR) analysis: PCR amplification of CCR5 and HIV gag cDNA was performed with one tenth of the cDNA for 35 cycles (CCR5) (32) or 40 cycles (gag) (27) using AmpliTaq Gold (Perkin Elmer-Cetus, Foster City, Calif.) in a GeneAmp PCR System 2400 (Perkin Elmer-Cetus). β-Actin was used as a control to monitor the amount and integrity of RNA in each sample (Clontech, Palo Alto, Calif.). Real time PCR was performed with one tenth of cDNA using ABI Prism 7700 Sequence Detection System (Perkin Elmer). The reaction mixture contained 0.25 mM of dNTPs, AmpliTaq Gold (1.5 U), 5 mM of MgCl2, 50 pmole of each of the two primers (SK38: 5′-[…]-3′ (SEQ ID NO: 3); SK39: 5+-[…]-3′; SEQ ID NO: 4), 20 pmole of the molecular beacon probe (SK19: 5′-[…]-3′; SEQ ID NO: 5) labeled with FAM (a fluorophore) at its 5′ end and DABCYL (a quencher) at the 3′ end. The cycle conditions were 95° C. 10 min followed by 40 cycles of 95° C. 15 sec and 60° C. 1 min. The known amounts of HIV DNA isolated from ACH-2 cells were used as standard controls. All standards and samples were run in duplicates. HIV gag, CCR5, β-Actin primer pairs and the probe (SK19) were synthesized by Integrated DNA Technologies, Inc. (Coralville, Iowa).
Background: In qPCR the cycle at which signal appears reflects the starting amount.

The next test concerns X4 strain (UG024). Kind of test: HIV RT activity in MDM infected with X4 strain. It is filed as cell-based. The procedure: as §1, §2
The mark [1] stands for this setting: R-113281 10^−6 M, 8 days after infection (FIG. 14).
Setting [2] is: CP-96,345 10^−7M, 8 days after infection (FIG. 6).

From patent US20020094524A1, “Compositions and methods for inhibiting HIV infection” (priority 2000, published 2002) come the findings set out here.

With `COc1cc(C(=O)N2CCO[C@](CCN3CCC4(CC3)c3ccccc3C[S@+]4[O-])(c3ccc(Cl)c(Cl)c3)C2)cc(OC)c1OC.Cl` [R-113281], the “MLV-Env pseudotyped HIV infection of MDM (luciferase activity)” value in the test with MLV Env-pseudotyped HIV (R-113281 10^−7 and 10^−6 overnight (FIG. 13)) was “failed to block”. The “replication of R5X4 strain (RT activity)” value in the test with R5X4 strain (89.6) (setting [1]) is recorded as “inhibited to a lesser extent”. Moreover, the “CCR5 protein expression (percentage CCR5 positive cells, flow cytometry)” value with CCR5 (R-113281 10^−6M, 24 hours (FIG. 15B)) was “inhibited”. Further, the “relative CCR5 mRNA level (real-time RT-PCR)” value in the test with CCR5 mRNA is “significantly down-regulated”. Further, in the test with X4 strain (UG024) (setting [1]), the “replication of X4 strain (RT activity)” value was “not affected”.

For `COc1ccccc1CN[C@H]1C2CCN(CC2)[C@H]1C(c1ccccc1)c1ccccc1` [CP-96,345, 2S, 3S)-cis-2-(diphenylmethyl)-N-[(2-methoxyphenyl)-methyl]-1-azabicyclo[[2.2.2]octan-3-amine], the “MLV Env-pseudotyped HIV infection of MDM (luciferase activity)” value in the test with MLV Env-pseudotyped HIV (CP-96,345 10^−8 and 10^−7M overnight (FIG. 10)) is reported as “failed to block”. Moreover, in the test with R5X4 strain (89.6) (setting [2]), the “replication of R5X4 strain 89.6 (RT activity)” value is “inhibited to a lesser extent”. Moreover, in the test with CCR5 (overnight/24 h, among CD4, CCR5, CXCR4 and CD14 only CCR5 changed (FIG. 8)), the “CCR5 receptor expression on MDM (percentage positive cells)” value is “down-regulated”. Moreover, the “CCR5 mRNA in MDM (RT-PCR)” value in the test on CCR5 mRNA (10^−8 to 10^−6M, 3 h (FIG. 9)) is “down-regulated”. In addition, the “relative CCR5 mRNA level (real-time RT-PCR)” value with CCR5 mRNA is recorded as “significantly down-regulated”. The “replication of X4 strain UG024 (RT activity)” value in the test on X4 strain (UG024) (setting [2]) is on record as “not affected”.
